From patent US20120082659A1, “Methods And Compositions Related To Synergistic Responses To Oncogenic Mutations” (priority 2007, published 2012)

Experiments:
YAMC cells [1] = assay: Cell death / anoikis by TUNEL staining, YAMC cells; type: cell-based, mouse; conditions: methylcellulose without FBS or ITS-A
Procedure: (§1) The cells were re-plated at 458,000 cells per 15 cm dish in 10% FBS medium and treated for three days with 2.5 mM NB or VA at 39° C. Cells were then trypsinized and (A), (B) suspended in methylcellulose supplemented with fresh NB or VA, 10% FBS, and ITS-A at 37,000 cells per mL, or (C) suspended in methylcellulose w/o FBS, or ITS-A at 150,000 cells per mL and incubated at 39° C. for three days. Cells were extracted from the methylcellulose by repeated re-suspension in PBS w/1% BSA and centrifugation, and briefly trypsinized to break up cell aggregates. The extracted cells were labeled with 10 μM BrdU for ninety minutes prior to harvesting, fixed in cold 80% ethanol, and stained with an anti-BrdU antibody and propidium iodide to measure cell cycle progression (A), or fixed in 4% paraformaldehyde, and TUNEL-stained to measure cell death (B), (C). Error bars represent standard deviation values derived from multiple independent measurements for each sample. […]
(§2) For anoikis assays, cells were then trypsinized, counted and suspended in methylcellulose at a density of 1.5×10^5 cells/mL for an additional 72 hours in the absence of HDACi. […]
(§3) Paraformaldehyde-fixed cells were pelleted and washed with PBS containing 0.1% BSA. […] TUNEL-stained cells were analyzed by flow cytometry using a FACScalibur (Becton Dickinson). The percentage of TUNEL-positive cells was analyzed using ModFit LT for Mac v2.0.

mp53/Ras cells [2] = assay: Xenograft tumor formation by mp53/Ras cells in nude mice; type: in vivo, mouse; conditions: for tumor formation in nude mice by drug-pre-treated cells: mp53/Ras cells pre-treated in vitro with 2.5 mM, xenograft, vs untreated cells; for % Change in Tumor Volume (Perturbed vs. Control): mp53/Ras cells with gene perturbation, s.c. in nude mice, 4 weeks, vs matched vector control
Procedure: (§4) Murine mp53/Ras cells were grown at 39° C. for 2 days prior to injection. Human HT-29 and DLD-1 cells were grown in standard conditions, described above. Tumor formation was assessed by sub-cutaneous injection of 5×10^5 cells (mp53/Ras and DLD-1 cells) or 1.25×10^5 cells (HT-29) into CD-1 nude mice (Cr1:CD-1-Foxn1nu, Charles River Laboratories) in appropriate media (RPMI 1640 or DMEM) with no additives. For each replicate of all gene perturbations, 2-12 injections were performed for perturbed cells and vector controls, as indicated in FIGS. 12 and 16. Tumor size was measured by caliper at 2, 3 and 4 weeks post-injection. Tumor volume was calculated by the formula volume=(4/3)πr3, using the average of two radius measurements. Tumor reduction was calculated based on the average tumor volume following each gene perturbation as compared to the directly matched vector control tumors. Statistical significance of difference in tumor size was calculated by the Wilcoxn signed-rank test (Hollander, M. & Wolfe, D. A. Nonparametric Statistical Methods (Wiley-Interscience, Hoboken, N.J., 1998)), comparing tumors derived from perturbed cells with tumors induced by directly matching vector control cells.
Tumor formation was assessed by sub-cutaneous injection of cells into CD-1 nude mice (Cr1: CD-1-Foxn1^nu, Charles River Laboratories). Tumor size was measured by caliper at 2, 3 and 4 weeks post-injection. Significance of difference in tumor size was calculated by the Wilcoxn signed-rank test and by the t-test using directly matching vector control cells for each perturbation.
For tumor formation studies, cells were treated with HDACi as indicated above, then trypsinized, counted and injected sub-cutaneously into the flanks of CD-1 nude mice at a multiplicity of 5×10^5 cells per injection. Mice were observed and tumors measured for 4 weeks post-injection by caliper.
Murine mp53/Ras cells were grown at 39° C. for 2 days prior to injection. Human CaPan-2 and PC3 cells were grown in standard conditions, described above. Tumor formation was assessed by sub-cutaneous injection of 5×10^5 mp53/Ras cells or 7.5×10^5 CaPan-2 or PC3 cells into CD-1 nude mice (Cr1: CD-1-Foxn1^nu, Charles River Laboratories) in appropriate media (RPMI 1640 or DMEM) with no additives. For each replicate of all gene perturbations, 2-12 injections were performed for perturbed cells and vector controls. Tumor size was measured by caliper weekly for up to 6 weeks post-injection. Tumor volume was calculated by the formula volume=(4/3)πr^3, using the average of two radius measurements. Tumor reduction was calculated based on the average tumor volume following each gene perturbation as compared to the directly matched vector control tumors. Statistical significance of difference in tumor size was calculated by both the Wilcoxn signed-rank test and the t-test to assess consistency of significance calls, comparing tumors derived from perturbed cells with tumors induced by directly matching vector control cells.

mp53/Ras cells [3] = assay: Cell death / anoikis by TUNEL staining, mp53/Ras cells; type: cell-based, mouse; conditions: methylcellulose without FBS or ITS-A
Procedure: as §1, §2, §3

mp53/Ras cells [4] = assay: Proliferation and morphology of mp53/Ras cells in adherent culture; type: cell-based, mouse; conditions: for cell proliferation over time: mp53/Ras cells, 2.5 mM
Source text: (§5) These compounds affect human cancer cell line behavior in vitro in the millimolar range and even higher concentrations are required in vivo (Villar-Garea and Esteller, 2004).

[5] = system: cooperation response genes; assay: TLDA QPCR of CRG expression in HDACi-treated mp53/Ras cells; type: cell-based, mouse; conditions: 2.5 mM, 3 days, 56 CRGs tested by TLDA
Procedure: The YAMC cell system (Jat et al., 1991; Whitehead et al., 1993) and transformation of these cells by mp53/Ras are described elsewhere (Xia and Land, 2007). YAMC and mp53/Ras cells were cultured for two days at 39° C. in RPMI with 10% FBS without interferon-γ on collagen IV-coated dishes. Cells were then re-plated on collagen IV-coated dishes into the same medium containing either 2.5 mM NB, 2.5 mM VA, or no drug for 72 hours at a density of 4.58×10^5 cells per 15-cm dish. Cells were harvested for RNA isolation at this point, or used for biological assays as described below.
The TaqMan Low-Density Array (Applied Biosystems) consists of TaqMan qPCR reactions targeting the cooperation response genes available and control genes (18S rRNA, GAPDH) in a microfluidic card. TLDA were used to independently test gene expression differences observed in the CMap database which used Affymetrix arrays. To generate cDNA for qPCR analysis, quadruplicate samples of RNA was isolated from untreated YAMC cells or mp53/Ras cells treated with either 2.5 mM VA, 2.5 mM NB or no drug for 72 hours, using the RNeasy and Qiashredder kits (Qiagen). Ten μg of RNA per sample were mixed with 1× SuperScript II First Strand buffer, 10 mM DTT, 400 μM dNTP mixture, 0.3 ng random hexamer primer, 2 μL RNaseOUT RNase inhibitor and 2 μL of SuperScript II reverse transcriptase in a 100 μL reaction (all components from Invitrogen). RT reactions were carried out by denaturing RNA at 70° C. for 10 minutes, plunging RNA on to ice, adding other components, incubating at 42° C. for 1 hour and heat inactivating the RT enzyme by a final incubation at 70° C. for 10 minutes.
For each sample, 82 μL of cDNA was combined with 328 μl of nuclease free water (Invitrogen) and an equal volume of TaqMan Universal PCR Master Mix No AmpErase UNG (Applied Biosystems). The mixture was loaded into each of 8 ports on the card at 100 μL per port. Each reaction contained forward and reverse primer at a final concentration of 900 nM and a TaqMan MGB probe (6-FAM) at 250 nM final concentration. […]. The real-time RT-PCR amplifications were run on an ABI Prism 7900HT Sequence Detection System (Applied Biosystems) with a TaqMan Low Density Array Upgrade. Thermal cycling conditions were as follows: 2 min at 50° C., 10 min at 94.5° C., 40 cycles of 97° C. for 30 seconds, and annealing and extension at 59.7° C. for 1 minute. Each individual replicate cDNA sample was processed on a separate card.
Gene expression values were derived using SDS 2.2 software package (Applied Biosystems). Differential gene expression was calculated by the ΔΔCt method. Briefly, using threshold cycle (Ct) for each gene, change in gene expression was calculated for each sample comparison by the formulae: […]

YAMC cells [6] = assay: Proliferation and morphology of YAMC cells in adherent culture; type: cell-based, mouse; conditions: 5 mM, three days, 10% FBS medium
Source text: as §5

HT-29 cells = assay: Xenograft tumor formation by HT-29 colon cancer cells in nude mice; type: in vivo, human; conditions: HT-29 cells with gene perturbation, vs matched vector control
Procedure: as §4

Molecule	tumor formation in nude mice by drug-pre-treated cells (mp53/Ras cells [2]; four weeks)	cell proliferation over time (mp53/Ras cells [4])	proportion of CRGs whose expression is significantly altered (reversal of CRG signature) [5] [%]	% Change in Tumor Volume (Perturbed vs. Control) (mp53/Ras cells [2]) [%]	other results
CCCC(=O)[O-].[Na+] [sodium butyrate]	significantly smaller tumors	completely inhibited	~55	–	apoptosis (TUNEL) (YAMC cells [1]): did not decrease apoptosis; NB Tumors (mp53/Ras cells [2]; mp53/Ras cells treated with 2.5 mM NB for three days before injection, 500,000 cells s.c. in CD1 nude mice, four weeks, tumors/injections): 1/16; increase in cell death (TUNEL) (mp53/Ras cells [3]): greater than five-fold; cell morphology (mp53/Ras cells [4]; transformed cells, 5 mM, three days, 10% FBS medium): dramatic morphological change; proportion of CRGs whose expression is significantly altered (reversal of CRG signature) ([5]; listed as NB): about 55%; cell morphology (YAMC cells [6]): unaffected
CCCC(CCC)C(=O)O [valproic acid]	significantly smaller tumors	completely inhibited	~55	–	proportion of CRGs whose expression is significantly altered (reversal of CRG signature) ([5]; listed as VA): about 55%
Plac8: shRNA-dependent stable knock-down of up-regulated CRG Plac8 (retroviral) (sense CTGGCAGACCAGCCTGTGTTT; the letters are possibly those of the target site)	–	–	–	−100	% Change in Tumor Volume (Perturbed vs. Control) (HT-29 cells): −100.00%
Rgs2: shRNA-dependent stable knock-down of up-regulated CRG Rgs2 (retroviral) (sense GCGCAGCTCTGGGCAGAAG; the letters are possibly those of the target site)	–	–	–	−60	–
Slc14a1: shRNA-dependent stable knock-down of up-regulated CRG Slc14a1 (retroviral) (sense TCCTGATTCTGGTGGGACT; the letters are possibly those of the target site)	–	–	–	180	–
Sod3: shRNA-dependent stable knock-down of up-regulated CRG Sod3 (retroviral) (sense GGCGACACGCATGCCAAAG; target site or template, no part of the molecule)	–	–	–	−72	–
